For series [1], the target named is T1, CCR9 (Homo sapiens, UniProt P51686).
T1 construct: host or cells: HEK293T, transient
T1 sequence (P51686 1-369): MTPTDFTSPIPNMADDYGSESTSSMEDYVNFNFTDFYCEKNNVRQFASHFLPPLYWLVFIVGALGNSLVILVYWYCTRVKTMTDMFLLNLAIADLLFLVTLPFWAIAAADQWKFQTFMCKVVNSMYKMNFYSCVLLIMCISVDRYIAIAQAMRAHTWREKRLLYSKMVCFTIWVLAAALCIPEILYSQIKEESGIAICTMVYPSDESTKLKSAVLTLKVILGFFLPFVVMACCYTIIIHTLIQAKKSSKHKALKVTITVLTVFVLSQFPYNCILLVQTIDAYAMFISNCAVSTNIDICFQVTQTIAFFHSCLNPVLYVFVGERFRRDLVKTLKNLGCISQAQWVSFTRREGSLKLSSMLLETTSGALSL
The series is described as follows: NanoBRET-based assay for binding to the IABS of CCR9, as previously reported. To be noted: up to a concentration of 20 μM. An excerpt: With 6 (Figure 1), a first lead structure for intracellular CCR1 inhibition that features an approximately 20-fold CCR1 over CCR2 selectivity was previously discovered by Ortiz Zacarías et al.([33]) In order to discover new chemotypes for selective CCR1 over CCR2 inhibition, we aimed to apply our novel NanoBRET competition binding assay for CCR1 in combination with our recently published CCR2 competition binding assay based on 7.[47] In our first attempt, we screened a small in-house library enriched with intracellular GPCR ligands and structural analogues thereof. […] Additionally, we tested 23 for binding to the IABS of CCR9 and CXCR2 using our recently reported NanoBRET-based assay platform (Figure 6C).[44],[45] In the course of these studies, we detected no binding of 23 to CCR9 and CXCR2 up to a concentration of 20 μM. Since cell lineage-dependent effects have been observed for CCR1 antagonists,[59] we studied the CCR1 over CCR2 selectivity of 23 by using a previously reported radioligand binding assay with membrane preparations from osteosarcoma (U2OS) cells stably expressing human CCR1 or CCR2.[33] […] In agreement with these previous reports,[33] we observed a reduction in CCR1 over CCR2 selectivity when moving from membrane-based binding assays to cell-based functional assays. […]
(In general: Bioluminescence resonance energy transfer reports proximity on the nanometre scale.)

A short description of series [2]: Kinetic solubility assay (nephelometry). It is filed as physicochemical. The settings on record: aqueous buffer, kinetic from dmso stock; saline phosphate buffer pH 7.25, 1% DMSO, 25 °C, ± SD; read-out: kinetic solubility Skin.

In brackets after ≈: the same amount, converted by molar mass.

One may read the solubility (kinetic) as the concentration staying in solution when a stock, usually in DMSO, is diluted into the medium.

As to `O=C(C1=C(O)C(=O)N(CCc2ccc(O)cc2)C1c1ccc(F)cc1)c1ccccc1` (racemic) [compound 23], the “Binding to the IABS of CCR9” value in series [1] was “no binding”. The kinetic solubility at 10 s in series [2] worked out at 442 ± 27 µM (≈ 185 µg/mL).

For the origin of these results see article PMC11249626, “Fluorophore-Labeled Pyrrolones Targeting the Intracellular Allosteric Binding Site of the Chemokine Receptor CCR1” (ACS Pharmacology & Translational Science, 2024).
